Measurements: patent US20230339981A1, “KRAS G12D MODULATING COMPOUNDS” (priority 2022, published 2023)
pEC50, pIC50: −log10 of the molar value.

Legend:
AsPC-1 (KRAS G12D) cells = test: 3D cell viability assay (spheroids, CellTiter-Glo 3D); type: cell-based; conditions: Homo sapiens, ASPC1, 96 h, AsPC-1 cells, 3D spheroids, 4 days
Protocol: Example C. 3D Cell Viability Assay
Compounds were tested in a 384-well format for their ability to inhibit the viability of AsPC-1 (KRAS G12D) cells in 3D assays. On day 0, 1000 cells/well (80 μL volume per well) in DMEM with 10% FBS, and Penicillin-Streptomycin-Glutamine were plated in 384-well Ultra-Low Attachment Spheroid Microplates (Corning, Catalog #3830) on the BioTEK EL406 liquid dispenser with a 5 μL dispensing cassette (BioTek 7170011). The plates were incubated at 37° C., 5% CO2 for 3 days to allow spheroid formation. On day 3, compounds were serially diluted (1:3) in DMSO. The Biomek FX was used to add 400 nL of test molecule per well. The plates were incubated at 37° C., 5% CO2 for 4 days before addition of CellTiter-Glo 3D (Promega, Catalog #9683) reagent and measurement of luminescence signal. EC50 values were defined as the compound concentration that causes a 50% decrease in luminescence signal and were calculated using a sigmoidal dose-response model to generate curve fits.

GP2D (KRAS G12D) cells = test: 2D cell viability assay (CellTiter-Glo); type: cell-based; conditions: GP2d, 96 h, 4 days
Procedure, shortened: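 Viability was read by CellTiter-Glo after 4 days at 37 °C of 2D culture of KRAS G12D GP2D cells (1000/well, RPMI, 10% FBS) on pre-spotted threefold compound dilutions. EC50 was fitted with a sigmoidal dose-response model as the point of half-maximal luminescence loss.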

GDP-loaded KRAS G12D = GDP-loaded KRAS G12D (Homo sapiens (Human), UniProt P01116, G12D); test: KRAS G12D (GDP) biochemical assay (TR-FRET probe displacement); type: binding; conditions: 2 hours
Sequence of GDP-loaded KRAS G12D (P01116-2 other isoform, or with tags, fused parts or gaps G12D): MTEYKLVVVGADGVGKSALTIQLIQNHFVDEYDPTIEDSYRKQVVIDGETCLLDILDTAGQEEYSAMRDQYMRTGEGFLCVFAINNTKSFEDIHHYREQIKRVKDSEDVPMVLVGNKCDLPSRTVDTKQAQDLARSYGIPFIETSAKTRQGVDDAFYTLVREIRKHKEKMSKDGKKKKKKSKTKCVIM
Procedure, shortened: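 TR-FRET probe displacement: 1:3 DMSO serial dilutions pre-incubated 30 min with GDP-bound KRAS G12D, followed by Eu-streptavidin/probe for 2 h at room temperature (Hepes pH 7.4, NaCl, MgCl2, Tween-20 buffer). IC50 defined as concentration halving TR-FRET ratio, from sigmoidal dose-response fit.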

## C#Cc1c(F)ccc2cc(O)cc(-c3nc4c5c(nc(OC[C@@]67CCCN6C[C@H](F)C7)nc5c3F)N3C[C@H]5CC[C@H](N5)[C@@H]3[C@@H](CC)C4)c12 [Example 92, 4-((5S,5aS,6S,9R)-5-ethyl-1-fluoro-12-(((2R,7aS)-2-fluorotetrahydro-1H-pyrrolizin-7a(5H)-yl)methoxy)-4,5,5a,6,7,8,9,10-octahydro-3,10a,11,13,14-pentaaza-6,9-methanonaphtho[1,8-ab]heptalen-2-yl)-5-ethynyl-6-fluoronaphthalen-2-ol]
AsPC-1 (KRAS G12D) cells
  pEC50: 7.28
GP2D (KRAS G12D) cells
  pEC50: 7.76
GDP-loaded KRAS G12D
  pIC50: 8.72

## C#Cc1c(F)ccc2cc(O)cc(-c3nc4c5c(nc(OC[C@@]67CCCN6C[C@H](F)C7)nc5c3F)N3C[C@H]5CC[C@H](N5)[C@H]3CCC4)c12 [Example 75, 5-ethynyl-6-fluoro-4-((6aR,7S,10R)-1-fluoro-13-(((2R,7aS)-2-fluorotetrahydro-1H-pyrrolizin-7a(5H)-yl)methoxy)-5,6,6a,7,8,9,10,11-octahydro-4H-3,11a,12,14,15-pentaaza-7,10-methanocyclohepta[4,5]cycloocta[1,2,3-de]naphthalen-2-yl)naphthalen-2-ol]
AsPC-1 (KRAS G12D) cells
  pEC50: 9.30
GP2D (KRAS G12D) cells
  pEC50: 9.77
GDP-loaded KRAS G12D
  pIC50: 10.22

## C#Cc1c(F)ccc2cc(O)cc(-c3nc4c5c(nc(OC[C@@]67CCCN6[C@H](COC(=O)N(C)C)CC7)nc5c3F)N3C[C@H]5CC[C@H](N5)[C@H]3CO4)c12 [Example 39, ((3S,7aS)-7a-((((5aS,6S,9R)-2-(8-ethynyl-7-fluoro-3-hydroxynaphthalen-1-yl)-1-fluoro-5a,6,7,8,9,10-hexahydro-5H-4-oxa-3,10a,11,13,14-pentaaza-6,9-methanonaphtho[1,8-ab]heptalen-12-yl)oxy)methyl)hexahydro-1H-pyrrolizin-3-yl)methyl dimethylcarbamate]
AsPC-1 (KRAS G12D) cells
  pEC50: 7.02
GP2D (KRAS G12D) cells
  pEC50: 7.32
GDP-loaded KRAS G12D
  pIC50: 9.40

## C#Cc1c(F)ccc2cccc(-c3nc4c5c(nc(OC[C@@]67CCCN6[C@H](COC(C)(C)C)CC7)nc5c3F)N3C[C@H]5CC[C@H](N5)[C@H]3CC4)c12 [Example 119, (5aR,6S,9R)-12-(((3S,7aS)-3-(tert-butoxymethyl)tetrahydro-1H-pyrrolizin-7a(5H)-yl)methoxy)-2-(8-ethynyl-7-fluoronaphthalen-1-yl)-1-fluoro-4,5,5a,6,7,8,9,10-octahydro-3,10a,11,13,14-pentaaza-6,9-methanonaphtho[1,8-ab]heptalene]
AsPC-1 (KRAS G12D) cells
  pEC50: 6.41
GP2D (KRAS G12D) cells
  pEC50: 6.90
GDP-loaded KRAS G12D
  pIC50: 8.62

## C#Cc1c(F)ccc2cc(O)cc(-c3nc4c5c(nc(OC[C@@]67CCCN6C[C@H](F)C7)nc5c3F)N3C[C@H]5CC[C@H](N5)[C@H]3CC4(F)F)c12 [Example 97, 5-ethynyl-6-fluoro-4-((5aR,6S,9R)-1,4,4-trifluoro-12-(((2R,7aS)-2-fluorotetrahydro-1H-pyrrolizin-7a(5H)-yl)methoxy)-4,5,5a,6,7,8,9,10-octahydro-3,10a,11,13,14-pentaaza-6,9-methanonaphtho[1,8-ab]heptalen-2-yl)naphthalen-2-ol]
AsPC-1 (KRAS G12D) cells
  pEC50: 7.26
GP2D (KRAS G12D) cells
  pEC50: 8.11
GDP-loaded KRAS G12D
  pIC50: 9.70

## C#Cc1c(F)ccc2cc(O)cc(-c3nc4c5c(nc(OC[C@@]67CCCN6C[C@H](F)C7)nc5c3F)N3C[C@H]5CC[C@H](N5)[C@H]3CC4)c12 [Example 22, 5-ethynyl-6-fluoro-4-((5aR,6S,9R)-1-fluoro-12-(((2R,7aS)-2-fluorotetrahydro-1H-pyrrolizin-7a(5H)-yl)methoxy)-4,5,5a,6,7,8,9,10-octahydro-3,10a,11,13,14-pentaaza-6,9-methanonaphtho[1,8-ab]heptalen-2-yl)naphthalen-2-ol]
AsPC-1 (KRAS G12D) cells
  pEC50: 8.70
GP2D (KRAS G12D) cells
  pEC50: 9.22
GDP-loaded KRAS G12D
  pIC50: 10.00

## C#Cc1c(F)ccc2cc(O)cc(-c3nc4c5c(nc(OC[C@@]67CCCN6[C@H](Cn6ccnn6)CC7)nc5c3F)N3C[C@H]5CC[C@H](N5)[C@H]3CO4)c12 [Example 49, 4-((5aS,6S,9R)-12-(((3S,7aS)-3-((1H-1,2,3-triazol-1-yl)methyl)tetrahydro-1H-pyrrolizin-7a(5H)-yl)methoxy)-1-fluoro-5a,6,7,8,9,10-hexahydro-5H-4-oxa-3,10a,11,13,14-pentaaza-6,9-methanonaphtho[1,8-ab]heptalen-2-yl)-5-ethynyl-6-fluoronaphthalen-2-ol]
AsPC-1 (KRAS G12D) cells
  pEC50: 6.85
GP2D (KRAS G12D) cells
  pEC50: 7.43
GDP-loaded KRAS G12D
  pIC50: 9.70

## C#Cc1c(F)ccc2cc(O)cc(-c3nc4c5c(nc(OC[C@@]67CCCN6C[C@@]6(CC6(F)F)C7)nc5c3F)N3C[C@H]5CC[C@H](N5)[C@H]3CC4)c12 [Example 122, 4-((5aR,6S,9R)-12-(((1S,7a'S)-2,2-difluorodihydro-1′H,3′H-spiro[cyclopropane-1,2′-pyrrolizin]-7a′(5′H)-yl)methoxy)-1-fluoro-4,5,5a,6,7,8,9,10-octahydro-3,10a,11,13,14-pentaaza[6,9]methanonaphtho[1,8-ab]heptalen-2-yl)-5-ethynyl-6-fluoronaphthalen-2-ol]
AsPC-1 (KRAS G12D) cells
  pEC50: 8.54
GP2D (KRAS G12D) cells
  pEC50: 10.00
GDP-loaded KRAS G12D
  pIC50: > 10.00

## C#Cc1c(F)ccc2cccc(-c3nc4c5c(nc(OC[C@@]67CCCN6C[C@H](F)C7)nc5c3F)N3C[C@H]5CC[C@H](N5)[C@H]3CCO4)c12 [Example 124, (6aR,7S,10R)-2-(8-ethynyl-7-fluoronaphthalen-1-yl)-1-fluoro-13-(((2R,7aS)-2-fluorotetrahydro-1H-pyrrolizin-7a(5H)-yl)methoxy)-5,6,6a,7,8,9,10,11-octahydro-4-oxa-3,11a,12,14,15-pentaaza-7,10-methanocyclohepta[4,5]cycloocta[1,2,3-de]naphthalene]
AsPC-1 (KRAS G12D) cells
  pEC50: 7.09
GP2D (KRAS G12D) cells
  pEC50: 7.59
GDP-loaded KRAS G12D
  pIC50: 9.30

## C#Cc1c(F)ccc2cccc(-c3nc4c5c(nc(OC[C@@]67CCCN6C[C@H](F)C7)nc5c3F)N3C[C@H]5CC[C@H](N5)[C@H]3CO4)c12 [Example 4, (5aS,6S,9R)-2-(8-ethynyl-7-fluoronaphthalen-1-yl)-1-fluoro-12-(((2R,7aS)-2-fluorotetrahydro-1H-pyrrolizin-7a(5H)-yl)methoxy)-5a,6,7,8,9,10-hexahydro-5H-4-oxa-3,10a,11,13,14-pentaaza-6,9-methanonaphtho[1,8-ab]heptalene]
AsPC-1 (KRAS G12D) cells
  pEC50: 7.04
GP2D (KRAS G12D) cells
  pEC50: 7.35
GDP-loaded KRAS G12D
  pIC50: 8.40

## C#Cc1c(F)ccc2cc(O)cc(-c3nc4c5c(nc(OCC6(CN7CC8CC8C7)CC6)nc5c3F)N3C[C@H]5CC[C@H](N5)[C@H]3CC4)c12 (stereo partly drawn) [Example 176, 4-((5aR,6S,9R)-12-((1-((3-azabicyclo[3.1.0]hexan-3-yl)methyl)cyclopropyl)methoxy)-1-fluoro-4,5,5a,6,7,8,9,10-octahydro-3,10a,11,13,14-pentaaza-6,9-methanonaphtho[1,8-ab]heptalen-2-yl)-5-ethynyl-6-fluoronaphthalen-2-ol]
AsPC-1 (KRAS G12D) cells
  pEC50: 8.01
GP2D (KRAS G12D) cells
  pEC50: 9.40
GDP-loaded KRAS G12D
  pIC50: 10.00

## C#Cc1c(F)ccc2cccc(-c3nc4c5c(nc(OC[C@@]67C[C@@H](F)CN6CC6(CC6)C7)nc5c3F)N3C[C@H]5CC[C@H](N5)[C@H]3CC4)c12 [Example 113, (5aR,6S,9R)-2-(8-ethynyl-7-fluoronaphthalen-1-yl)-1-fluoro-12-(((6′R,7a′R)-6′-fluorodihydro-1′H,3′H-spiro[cyclopropane-1,2′-pyrrolizin]-7a′(5′H)-yl)methoxy)-4,5,5a,6,7,8,9,10-octahydro-3,10a,11,13,14-pentaaza-6,9-methanonaphtho[1,8-ab]heptalene]
AsPC-1 (KRAS G12D) cells
  pEC50: 7.24
GP2D (KRAS G12D) cells
  pEC50: 8.14
GDP-loaded KRAS G12D
  pIC50: 9.70
